From US20230242540A1, “COMPOUNDS HAVING ANTICANCER ACTIVITY” (The Trustees of Princeton University, priority 2020, published 2023) come the findings set out here.

Where only a bound is given, the exact number is not on record here.

The subject of assay [1] is HCT116 cell line. The experiment in a line: Cell growth inhibition by resazurin, HCT116. The format is cell-based. Conditions: HCT116, 4 days, with or without hypoxanthine and thymidine supplement, FIG. 1A. As to the method:
(§1) Cells of (a) HCT116 and (b) Panc1 cell lines were each seeded in 96-well plates at the density of 3000/well in 80 μL of DMEM media supplemented with 10 vol % dialyzed FBS. The next day, 10 μL of media with or without hypoxanthine (1 mM) and thymidine (160 μM) was added to each well. 10 μL of Compound 1 diluted in media as 10× stock of desired concentration was also added. Relative cell number is measured by resazurin right before and 4 days after the addition of Compound 1. Namely, resazurin dissolved in phosphate-buffered saline (PBS) was added to each well to a final concentration of 10 μg/mL followed by 1-hour incubation at 37° C. Fluorescence (excitation 550 nm, emission 590 nm) is then measured by a microplate reader. […] Inhibition of growth in both cancer cell lines was achieved via disruption of purine and thymine synthesis.
For orientation: The colour change of resazurin is a common sign of viable cells or microbes.

In assay [2] the test system is Panc1 cell line. The experiment in a line: Cell growth inhibition by resazurin, Panc1. The format is cell-based. The note with it: Panc1, 4 days, with or without hypoxanthine and thymidine supplement, FIG. 1B. How it is done:
as §1

Assay [3] deals with isogenic CHO cell line with low RFC expression. Nature of the assay: Folate competition, IC50 in CHO cells with low RFC expression. The format is cell-based. The note with it: Cricetulus griseus, folic acid free RPMI, 10 vol. % dialyzed FBS, 25 nM 5-formyl THF. As to the method:
(§2) Compound 1 was tested relative to pemetrexed and methotrexate against two isogenic CHO cell lines with low and high RFC expression levels. […] Table II provides the IC50 values for Compound 1, Pemetrexed and Methotrexate.

Assay [4] concerns isogenic CHO cell line with high RFC expression. Nature of the assay: Folate competition, IC50 in CHO cells with high RFC expression. The note with it: Cricetulus griseus, folic acid free RPMI, 10 vol. % dialyzed FBS, 25 nM 5-formyl THF. The assay is classed as cell-based. How it is done:
as §2

Assay [5] has as its system KPC pancreatic ductal adenocarcinoma allograft. Nature of the assay: KPC pancreatic ductal adenocarcinoma allograft. The assay is classed as in vivo, male C57BL/6 mice. The note with it: 5 mg/kg intraperitoneally once daily. As to the method: Tumor harvested from K-ras^LSL.G12D/+; Trp53^R172H/+; Pdx-1-Cre (KPC) mice was passaged at the flank of C57BL/6 subcutaneously. To initiate allografts, subcutaneous tumors were harvested and minced in DMEM media, mixed with equal volume of Matrigel basement membrane matrix (Corning 354234), and injected subcutaneously at the flank of male C57BL/6 mice. Tumors were measured twice per week. Once the average tumor volume reaches 100 mm^3, Compound 1 (5 mg/kg body weight, dissolved in 10% 2-hydroxypropyl-β-cyclodextrin) and vehicle (10% 2-hydroxypropyl-β-cyclodextrin, 10 mL/kg body weight) were injected intraperitoneally once daily, with continued tumor monitoring. At the end of experiment, mice were euthanized by cervical dislocation after being fasted for 6 hr. Tumors are collected into aluminum foil, clamped by a Wollenberg clamp pre-cooled in liquid N2, and kept cold in liquid N2.
To extract metabolites from tumor samples, tumors were first ground by a Cryomill (Retsch). About 10 mg of ground tissue is measured and extracted by extraction buffer (acetonitrile:methanol:H2O=2:2:1, then supplemented with 0.5 vol % formic acid) at the ratio of 370 μL buffer per 10 mg tissue. […] Metabolite levels were measured by Q Exactive Plus Hybrid Quadrupole-Orbitrap coupled with […] (HILIC) operating in the negative ionization mode.

Assay [6] concerns HCT116 colorectal carcinoma xenograft. The experiment in a line: HCT116 colorectal carcinoma xenograft. Conditions: 5 mg/kg intraperitoneally once daily. The format is in vivo, female  mice.
The subject of assay [7] is MC38 mouse colon adenocarcinoma allograft. The experiment in a line: MC38 mouse colon adenocarcinoma allograft. The note with it: 5 mg/kg intraperitoneally once daily, FIG. 5A. The assay is classed as in vivo, female C57BL/6 mice. How it is done:
To initiate allografts, 2×10^6 MC38 cells were injected subcutaneously at the flank of female C57BL/6 mice. Once the average tumor volume reaches 50 mm^3, IRS-17 (5 mg/kg body weight, dissolved in 10% 2-hydroxypropyl-β-cyclodextrin) and vehicle (10% 2-hydroxypropyl-β-cyclodextrin, 10 mL/kg body weight) are injected intraperitoneally once daily. After the final dose, mice were fasted for 12 hr. Then blood was collected by tail snip into a tube without anticoagulants. Serum was collected by taking the supernatant after centrifugation. Mice were then euthanized by cervical dislocation, and tumors are harvested and frozen in liquid N2. Tumor metabolites were extracted and measured as previously described in C. To extract serum metabolites, 2.5 μL of serum was added into 80 μL of methanol. Samples were centrifuged (16000 g for 10 min) at 4° C., and supernatant is collected.

As usually defined, the IC50 is the concentration that gives 50% inhibition. Consider `C#Cc1ccc(Cn2ccc3c4c(N)nc(N)nc4ccc32)cc1` [Compound 1], for which the cell growth entry in assay [1] and in assay [2] was “inhibited cell growth” each time. The figures for the IC50 in assay [3] and in assay [4] were less than 0.002 nM and 0.06 nM, respectively. The “change in tumor volume over time” value in assay [5] (FIG. 3A) and in assay [6] (FIG. 4A) was “substantially inhibited tumor growth” each time. Besides, the tumor doubling time result in assay [5] (FIG. 3B) and in assay [6] (FIG. 4B) was “protracted tumor doubling time” throughout. Moreover, in assay [7], the “tumor volume over the treatment period” value is reported as “some reduction in tumor volume”.

For the compound `CN(Cc1cnc2nc(N)nc(N)c2n1)c1ccc(C(=O)N[C@@H](CCC(=O)O)C(=O)O)cc1` [Methotrexate], the concentration for half-maximal inhibition (IC50) in assay [3] came out at 4000 nM; in assay [4] it was 480 nM.

As for `Nc1nc2[nH]cc(CCc3ccc(C(=O)N[C@@H](CCC(=O)O)C(=O)O)cc3)c2c(=O)[nH]1` [Pemetrexed], the figures for the IC50 in assay [3] and in assay [4] were 800 nM and 150 nM, respectively.
